Assay [1] deals with FIT mRNA. Description: ICV infusion of FIT antisense ODN in Psammomys obesus: food intake and body weight. It counts as in vivo. The protocol: To further investigate the orexigenic properties of FIT intracerebroventricular (ICV) antisense suppression of FIT was performed. This involved the infusion of FIT antisense oligonucleotides (ODNs) directly into the lateral ventricle space of the brain to suppress endogenous FIT mRNA levels. The effects of this treatment on food intake and body weight were measured and compared to control animals infused with a jumbled sequence ODN, or saline alone. 18 week old, male, lean, normal glucose tolerant (nGT) P. obesus animals were utilised for this study and infused with either saline, FIT antisense ODN, or jumbled ODN at 24 μg/day for four days. The sequence of the FIT antisense ODN was 5′-mu*mg*mg*mc*ma*g*a*a*t*t*g*c*a*mu*mu*mc*mc*mu*-3′, and the jumbled ODN 5′-mc*mg*mc*ma*mc*t*t*a*g*c*t*a*c*mu*mu*mg*mc*mu-3′, where m indicates the presence of a 2′O-Methyl-modified base, and * indicates a phosphorothioate linkage.

A further assay has as its system melanocortin receptor. Description: Feeding response to ICV injection of SHU9119 after three days of ODN or saline infusion. It counts as in vivo, Sprague Dawley rats. An excerpt: To further analyse the link between FIT and the melanocortin system, the feeding response of Sprague Dawley rats to an ICV injection of SHU9119, a melanocortin receptor antagonist and known feeding stimulator was investigated. After three days of FIT antisense treatment, jumbled oligonucleotide or saline infusion, responses were compared to rats receiving an ICV injection of saline vehicle rather than SHU9119.

For the next assay, the target named is T1, MC4R (Rattus norvegicus, UniProt P70596).
T1 construct: from tissue; host or cells: living Sprague Dawley rats (brain)
Put plainly: Feeding response to MT II after ODN or saline infusion. It counts as in vivo, Sprague Dawley rats. The settings on record: mean ± SEM. On the procedure:
To further investigate this relationship, antisense suppression of FIT in Sprague Dawley rats was again performed and these animals' responses to administration of the α-MSH analog MT II, a synthetic agonist of the MC4R and known suppressor of feeding. MT II effects on food intake and body weight in saline and jumbled ODN-treated control rats, as well as in FIT antisense-treated rats was measured.

Assay [2] has as its system FIT mRNA. Put plainly: Metabolic heat production by indirect calorimetry (FIG. 1). It counts as in vivo, Sprague Dawley rats. The settings on record: Sprague Dawley rats, after three days of treatment. An excerpt:
FIG. 1 is a graphical representation of metabolic heat production in Sprague Dawley rats after three days of FIT antisense-treatment compared to jumbled ad libitum fed and jumbled pair fed rats. *p<0.05 pair fed compared to jumbled group, #p<0.05 pair fed compared to FIT antisense-treated group, ̂p<0.05 compared to both jumbled and FIT antisense-treated groups. Data are mean ±SEM.
To further dissect the nature of the inability to reduce TEE levels after FIT antisense treatment, metabolic heat production was measured by indirect calorimetry.

Assay [3] has as its system FIT mRNA. Put plainly: ICV infusion of FIT antisense ODN in Sprague Dawley rats: food intake and body weight. It counts as in vivo. The protocol: To confirm the appetite-suppressing and weight-reducing effects of central FIT suppression in an animal model other than P. obesus, the inventors performed the same experiments in Sprague Dawley rats. Male, 12 week old Sprague Dawley rats were infused with either saline, FIT antisense ODN, or jumbled ODN at 24 μg/day for four days. The sequence of the FIT antisense ODN and the jumbled ODN are the same as in Example 2 above.

Assay [4] relates to FIT mRNA. Put plainly: Hypothalamic FIT gene expression by semi-quantitative RT-PCR in ICV antisense-treated rats. It counts as in vivo, Sprague Dawley rats. The settings on record: hypothalamus. On the procedure: To confirm endogenous suppression of FIT in antisense-treated Sprague Dawley rats, FIT mRNA in the hypothalamus of these animals was measured.
In assay [5] the test system is FIT mRNA. Description: Pair-feeding study with indirect calorimetry (24 h): body weight, food intake, total energy expenditure. It counts as in vivo, Sprague Dawley rats. The protocol:
To investigate the mechanism of weight loss after FIT antisense treatment, a group of Sprague Dawley rats were pair fed to the average daily food intake levels of FIT antisense-treated rats, and indirect calorimetry (24 h) was performed before and after FIT antisense or jumbled ODN ICV infusion.
Total energy expenditure (TEE) was calculated from measurements of oxygen consumption and carbon dioxide production using indirect calorimetry (Ferrannini, 1988). Due to differences in body weight between the three groups of rats, TEE levels were calculated relative to whole body mass of the animals. […] FIT antisense-treated rats therefore have an inappropriately high level of energy expenditure for their body weight.

The next assay addresses T2, SH3GL2; endophilin 1 (human, UniProt Q99962 1-352).
T2 construct: Prey clone from a human brain cDNA library; not shown: not specified
Description: yeast two-hybrid screen of a human brain cDNA library (12 clones). An excerpt:
The inventors utilised a yeast two-hybrid system which incorporates modifications by Chevray and Nathans (1992), and Vidal et al. (1996) to screen a human brain cDNA library.

Setting [6] is: ICV 24 μg/day, day 1, mean ± SEM.
The mark [7] stands for this setting: ICV 24 μg/day, day 2, mean ± SEM.
[8] abbreviates: ICV 24 μg/day, day 3, mean ± SEM.
[9] abbreviates: ICV 24 μg/day, day 4, mean ± SEM.
Where [10] appears, read: baseline body weight, mean ± SEM.
Where [11] appears, read: change compared to day 0, mean ± SEM.
Setting [12] is: not pair fed (jumbled group ad libitum fed), mean ± SEM.

Marks after values point to notes of the source that are not given here.

T1 sequence (P70596 whole entry): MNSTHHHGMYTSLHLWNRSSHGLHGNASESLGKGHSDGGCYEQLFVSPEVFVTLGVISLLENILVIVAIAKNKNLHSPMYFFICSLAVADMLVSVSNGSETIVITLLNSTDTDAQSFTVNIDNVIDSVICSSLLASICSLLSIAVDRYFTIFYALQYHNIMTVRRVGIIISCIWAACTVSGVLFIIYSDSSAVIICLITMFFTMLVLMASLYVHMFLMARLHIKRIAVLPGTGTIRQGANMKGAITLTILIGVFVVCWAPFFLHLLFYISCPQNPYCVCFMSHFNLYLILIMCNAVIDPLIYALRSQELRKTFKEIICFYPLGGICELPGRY
T2 sequence (Q99962 whole entry): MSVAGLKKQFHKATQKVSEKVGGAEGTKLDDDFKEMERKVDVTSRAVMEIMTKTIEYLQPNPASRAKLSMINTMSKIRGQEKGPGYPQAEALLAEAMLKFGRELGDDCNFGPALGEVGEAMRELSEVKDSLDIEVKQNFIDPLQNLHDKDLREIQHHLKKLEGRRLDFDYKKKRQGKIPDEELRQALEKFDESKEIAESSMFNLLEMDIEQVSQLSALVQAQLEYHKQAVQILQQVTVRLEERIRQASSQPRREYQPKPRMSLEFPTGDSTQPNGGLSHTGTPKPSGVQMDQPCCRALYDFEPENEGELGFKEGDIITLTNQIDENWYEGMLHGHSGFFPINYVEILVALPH

As for “5′-mu*mg*mg*mc*ma*g*a*a*t*t*g*c*a*mu*mu*mc*mc*mu*-3′ [FIT antisense]”, the “Cumulative food intake, Day 1 Food” value with FIT mRNA [1] (setting [6]) is 6.5 ± 1.6^a g; in the assay on FIT mRNA [3] (setting [6]) it was 8.6 ± 1.6^a,b g. Besides, the results for the “Cumulative food intake, Day 2 Food” value in the assay with FIT mRNA [1] (setting [7]) and in the assay with FIT mRNA [3] (setting [7]) were 12.3 ± 2.9^a g and 23.4 ± 2.6^a,b g, respectively. In addition, the “Cumulative food intake, Day 3 Food” value with FIT mRNA [1] (setting [8]) is reported as 18.9 ± 3.9^a g; with FIT mRNA [3] (setting [8]), 38.3 ± 3.6^a,b g. For the same molecule, the “Cumulative food intake, Day 4 Food” value in the assay on FIT mRNA [1] (setting [9]) is 27.4 ± 4.4^a,b g; in the assay on FIT mRNA [3] (setting [9]) it was 55.0 ± 4.9^a,b g. The “Day 1 BW” value in the assay on FIT mRNA [1] (ICV 24 μg/day, mean ± SEM) was 195 ± 7 g; with FIT mRNA [3] (ICV 24 μg/day, mean ± SEM) it was 425 ± 37 g. The “Day 2 BW” value with FIT mRNA [1] (ICV 24 μg/day, mean ± SEM) was found to be 194 ± 8 g; in the assay on FIT mRNA [3] (ICV 24 μg/day, mean ± SEM), 415 ± 37 g. The “Day 3 BW” value with FIT mRNA [1] (ICV 24 μg/day, mean ± SEM) is reported as 192 ± 7 g; in the assay on FIT mRNA [3] (ICV 24 μg/day, mean ± SEM), 410 ± 38^a g. In addition, the “Day 4 BW” value in the assay on FIT mRNA [1] (ICV 24 μg/day, mean ± SEM) is listed as 190 ± 7 g; in the assay with FIT mRNA [3] (ICV 24 μg/day, mean ± SEM) it was 408 ± 37^a g; in the assay on FIT mRNA [5] (setting [12]), 338 ± 12^a,c g. Besides, the “cumulative food intake compared to jumbled oligonucleotide-infused and saline-treated control animals” value in the assay with FIT mRNA [1] (ICV, after four days of treatment) is “significantly reduced”. For the same molecule, the “Day 0 BW” value was 199 ± 7 g in the assay with FIT mRNA [1] (setting [10]); 444 ± 37 g with FIT mRNA [3] (setting [10]); 408 ± 13 g in the assay with FIT mRNA [5] (not pair fed (jumbled group ad libitum fed), baseline, mean ± SEM). Further, the “Day 1 ΔBW” value with FIT mRNA [1] (setting [11]) was −4.5 ± 0.7^a g; in the assay on FIT mRNA [3] (setting [11]), −19.6 ± 2.9^b g. Moreover, the “Day 2 ΔBW” value is given as −5.7 ± 2.1^a g with FIT mRNA [1] (setting [11]) and −28.8 ± 4.1^a,b g with FIT mRNA [3] (setting [11]). Further, the “Day 3 ΔBW” value is listed as −7.7 ± 1.8^a g in the assay with FIT mRNA [1] (setting [11]) and −34.4 ± 4.1^a,b g in the assay on FIT mRNA [3] (setting [11]). Moreover, the figures for the “Day 4 ΔBW” value in the assay on FIT mRNA [1] (setting [11]) and in the assay with FIT mRNA [3] (setting [11]) were −9.2 ± 1.5^a,b g and −36.6 ± 6.7^a,b g, respectively. Also, the “Δ FI” value in the assay with melanocortin receptor (48 hr food intake post minus pre injection, mean ± SEM) is recorded as 0.02 ± 0.01 g/g BW; at MC4R (24 hr food intake post minus pre injection), −0.01 ± 0.01^c g/g BW. Moreover, the “48 hr FI post injection” value with melanocortin receptor (food intake relative to body weight, after ICV SHU9119 or vehicle injection, mean ± SEM) was 0.09 ± 0.01^b,d g/g BW. For the same molecule, the “48 hr FI pre injection” value with melanocortin receptor (food intake relative to body weight, during ICV infusion, before SHU9119 or vehicle injection, mean ± SEM) is given as 0.07 ± 0.01^b g/g BW. The “feeding response after SHU9119 injection compared to jumbled-treated or saline-treated rats” value in the assay on melanocortin receptor (relative to body weight) is given as “significantly increased”. For the same molecule, the “24 hr FI post injection” value at MC4R (food intake after MT II or vehicle injection) was determined as 0.03 ± 0.01 g/g BW. For the same molecule, on MC4R (food intake, during ICV infusion, before MT II or vehicle injection), the “24 hr FI pre injection” value is 0.04 ± 0.01^d g/g BW. The metabolic heat production entry in the assay on FIT mRNA [2] was “inability to reduce heat production”. Further, the FIT gene expression in the assay on FIT mRNA [4] (ICV-treated Sprague Dawley rats, mean ± SEM) is recorded as 6.6 ± 1.0^a arbitrary units. Besides, in the assay with FIT mRNA [4] (Sprague Dawley rats), the “FIT gene expression suppressed compared to jumbled-treated rats” value was determined as 20%. Further, the “FIT gene expression suppressed compared to saline-treated rats” value with FIT mRNA [4] (Sprague Dawley rats) was 37%. The “ability to reduce TEE levels” value in the assay with FIT mRNA [5] (Sprague Dawley rats, TEE relative to whole body mass) was “unable to significantly reduce”. Further, the “Food Intake” value in the assay on FIT mRNA [5] (setting [12]) is 36.4 ± 11.2^a g. Also, in the assay with FIT mRNA [5] (setting [12]), the “Δ BW” value was −70.0 ± 8.6^a,b g. For the same molecule, in the assay on FIT mRNA [5] (not pair fed, mean ± SEM), the “Δ TEE” value is -67 ± 25 kJ/day/kg. Further, in the assay on FIT mRNA [5] (not pair fed, total energy expenditure after ICV infusion, mean ± SEM), the “Post TEE” value came to 525 ± 22 kJ/day/kg. In addition, the “Pre TEE” value in the assay with FIT mRNA [5] (not pair fed, total energy expenditure before ICV infusion, mean ± SEM) is 592 ± 30 kJ/day/kg.

B1: FIT-PR (FIT proline-rich region), yeast two-hybrid bait (other, not shown: small tags and cut ends)
chain: RPFPTGTPPPLPPKTVPATPPRTGSPLTVATGNDQAATEAKIEKPPSISDLDSIFGPVLSPKSVAVNTEETWVHFSDASPEHVTPELTPREKVVTPPAASDIPADSPTPGPPGPPGSAGPPGPPGPRNVPSPLNLEEVQKKVAEQTFIKDDYLETLSSPKECGLGQRATPPPPPPPTYRTVVSSPGPGSGSGTGTASGASSPARPATPLVPCSCSTPPPPPPRPPSRPKLPPGKPGVGDVSRPFSPPIHSSSPPPIAPL
notes: Truncated fragment of FIT used as bait in a yeast two-hybrid screen of a human brain cDNA library; also called AGT-121
For the molecule B1, the binding result with SH3GL2; endophilin 1 is on record as “binds”.

The values are drawn from patent US20080105961A1, “Ligands of the Molecule Fit (Agt-121) and their Pharmaceutical Use” (priority 2004, published 2008).
